Test results reported in patent US9302999B2, “Substituted triazoles as herbicides” (E. I. DU PONT DE NEMOURS AND COMPANY, priority 2012, dated 2016).

Columns and labels:
Assay type in all cases: in vivo
[1] = system: morningglory (Ipomoea spp.); assay: Test A pre-/postemergence: morningglory
How it was run: (§1)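 Whole-plant greenhouse assay in loam/sand. Preemergence directed soil spray plus simultaneous postemergence spray (one- to two-leaf stage, 2–10 cm). Rated visually ~10 days later, 0 = no effect, 100 = complete control.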

[2] = system: pigweed (Amaranthus retroflexus); assay: Test A pre-/postemergence: pigweed
How it was run: as §1

[3] = system: velvetleaf (Abutilon theophrasti); assay: Test A pre-/postemergence: velvetleaf
How it was run: as §1

[4] = system: wheat (Triticum aestivum); assay: Test A pre-/postemergence: wheat
How it was run: as §1

corn (Zea mays) = assay: Test A pre-/postemergence: corn; conditions: for Corn plant response rating: Postemergence; for Plant response rating, Corn: Preemergence
How it was run: as §1

[5] = system: ryegrass, Italian (Italian ryegrass, Lolium multiflorum); assay: Test C pre-/postemergence: ryegrass, Italian
How it was run: (§2)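 Preemergence on seeds in loam/sand, postemergence on 2–18 cm (1–4-leaf) plants in peat-based medium; compounds in non-phytotoxic solvent with surfactant. After 13–15 days in greenhouse, visual rating versus controls, 0 (no effect) to 100 (complete control).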

[6] = system: foxtail, giant (giant foxtail, Setaria faberii); assay: Test C pre-/postemergence: foxtail, giant
How it was run: as §2

kochia (Kochia scoparia) = assay: Test C pre-/postemergence: kochia
How it was run: as §2

[7] = system: lambsquarters (Chenopodium album); assay: Test C pre-/postemergence: lambsquarters
Text: Seeds of plant species selected from blackgrass (Alopecurus myosuroides), bromegrass, downy (downy bromegrass, Bromus tectorum), foxtail, green (green foxtail, Setaria viridis), ryegrass, Italian (Italian ryegrass, Lolium multiflorum), winter wheat (Triticum aestivum), wild oat (Avena fatua), galium (catchweed bedstraw, Galium aparine), bermudagrass (Cynodon dactylon), surinam grass (Brachiaria decumbens), cocklebur (common cocklebur, Xanthium strumarium), corn (Zea mays), large crabgrass (Digitaria sanguinalis), woolly cupgrass (Eriochloa villosa), foxtail, giant (giant foxtail, Setaria faberii), goosegrass (Eleusine indica), johnsongrass (Sorghum halepense), kochia (Kochia scoparia), lambsquarters (Chenopodium album), morningglory (Ipomoea coccinea), nightshade (eastern black nightshade, Solanum ptycanthum), nutsedge, yellow (yellow nutsedge, Cyperus esculentus), pigweed (Amaranthus retroflexus), ragweed (common ragweed, Ambrosia elation), soybean (Glycine max), common (oilseed) sunflower (Helianthus annuus), Russian thistle (Salsola kali) and velvetleaf (Abutilon theophrasti) were planted into a blend of loam soil and sand and treated preemergence with test chemicals formulated in a non-phytotoxic solvent mixture which included a surfactant.
(§3) At the same time, plants selected from these crop and weed species and also barley (winter barley, Hordeum vulgare), canarygrass (Phalaris minor), chickweed (common chickweed, Stellaria media) windgrass (Apera spica-venti) and deadnettle (henbit deadnettle, Lamium amplexicaule) were planted in pots containing Redi-Earth® planting medium (Scotts Company, 14111 Scottslawn Road, Marysville, Ohio 43041) comprising spaghnum peat moss, vermiculite, wetting agent and starter nutrients and treated with postemergence applications of test chemicals formulated in the same manner. Plants ranged in height from 2 to 18 cm (1- to 4-leaf stage) for postemergence treatments.
(§4) Treated plants and controls were maintained in a greenhouse for 13 to 15 days, after which time all species were compared to controls and visually evaluated. Plant response ratings, summarized in Table C, are based on a scale of 0 to 100 where 0 is no effect and 100 is complete control. A dash (-) response means no test result.

[8] = system: morningglory (Ipomoea coccinea); assay: Test C pre-/postemergence: morningglory
How it was run: as §2

[9] = system: pigweed (Amaranthus retroflexus); assay: Test C pre-/postemergence: pigweed
How it was run: as §2

[10] = system: chickweed (common chickweed, Stellaria media); assay: Test C postemergence: chickweed
Text: as §3, §4

[11] = Postemergence, 125 g ai/ha, 0 to 100 scale, 0 is no effect, 100 is complete control
[12] = Postemergence, 500 g ai/ha, visual rating on 0 to 100 scale (0 no effect, 100 complete control), approximately ten days
[13] = Preemergence, 125 g ai/ha, 0 to 100 scale where 0 is no effect and 100 is complete control
[14] = Preemergence, 500 g ai/ha, 0 to 100 scale (0 no effect, 100 complete control)
[15] = Postemergence, 31 g ai/ha, scale 0 to 100 (0 no effect, 100 complete control)
[16] = Postemergence, 62 g ai/ha, scale 0 to 100 (0 no effect, 100 complete control)
[17] = Postemergence, 125 g ai/ha, scale 0 to 100, 0 no effect, 100 complete control
[18] = Postemergence, 250 g ai/ha, scale 0 to 100
[19] = Preemergence, 31 g ai/ha, scale of 0 to 100, 0 is no effect, 100 is complete control
[20] = Preemergence, 62 g ai/ha, scale of 0 to 100, 0 is no effect, 100 is complete control
[21] = Preemergence, 125 g ai/ha, scale 0 to 100, 0 no effect, 100 complete control
[22] = Preemergence, 250 g ai/ha, scale 0 to 100, 0 no effect, 100 complete control

Fc1ccc(-n2nc(Cc3ccnc(C(F)(F)F)c3)c(OCC(F)(F)F)n2)cc1 [Compound 142]
Plant response rating, Morningglory [1, 11]: 100 | Morningglory plant response rating [1, 12]: 100 | Plant response rating, Morningglory [1, 13]: 50 | Plant response rating, Morningglory [1, 14]: 80 | Plant response rating, Pigweed [2, 11]: 100 | Pigweed plant response rating [2, 12]: 100 | Plant response rating, Pigweed [2, 13]: 100 | Plant response rating, Pigweed [2, 14]: 100 | Plant response rating, Velvetleaf [3, 11]: 100 | Velvetleaf plant response rating [3, 12]: 100 | Plant response rating, Velvetleaf [3, 13]: 60 | Plant response rating, Velvetleaf [3, 14]: 90 | Plant response rating, Wheat [4, 11]: 80 | Wheat plant response rating [4, 12]: 80 | Plant response rating, Wheat [4, 13]: 70 | Plant response rating, Wheat [4, 14]: 80 | Corn plant response rating (corn (Zea mays); 125 g ai/ha, 0 to 100 scale, 0 is no effect, 100 is complete control): 50 | Corn plant response rating (corn (Zea mays); 500 g ai/ha, visual rating on 0 to 100 scale (0 no effect, 100 complete control), approximately ten days): 80 | Plant response rating, Corn (corn (Zea mays); 125 g ai/ha, 0 to 100 scale where 0 is no effect and 100 is complete control): 30 | Plant response rating, Corn (corn (Zea mays); 500 g ai/ha, 0 to 100 scale (0 no effect, 100 complete control)): 80 | Plant response rating, Ryegrass, Italian [5, 15]: 10 | Plant response rating, Ryegrass, Italian [5, 16]: 40 | Plant response rating, Ryegrass, Italian [5, 17]: 50 | Plant response rating, Ryegrass, Italian [5, 18]: 50 | Plant response rating, Ryegrass, Italian [5, 19]: 30 | Plant response rating, Ryegrass, Italian [5, 20]: 90 | Plant response rating, Ryegrass, Italian [5, 21]: 90 | Plant response rating, Ryegrass, Italian [5, 22]: 90 | Plant response rating, Foxtail, Giant [6, 15]: 20 | Plant response rating, Foxtail, Giant [6, 16]: 75 | Plant response rating, Foxtail, Giant [6, 17]: 80 | Plant response rating, Foxtail, Giant [6, 18]: 90 | Plant response rating, Foxtail, Giant [6, 19]: 100 | Plant response rating, Foxtail, Giant [6, 20]: 100 | Plant response rating, Foxtail, Giant [6, 21]: 100 | Plant response rating, Foxtail, Giant [6, 22]: 100 | Plant response rating, Kochia (kochia (Kochia scoparia); [15]): 80 | Plant response rating, Kochia (kochia (Kochia scoparia); [16]): 90 | Plant response rating, Kochia (kochia (Kochia scoparia); [17]): 95 | Plant response rating, Kochia (kochia (Kochia scoparia); [18]): 95 | Plant response rating, Kochia (kochia (Kochia scoparia); [19]): 55 | Plant response rating, Kochia (kochia (Kochia scoparia); [20]): 80 | Plant response rating, Kochia (kochia (Kochia scoparia); [21]): 98 | Plant response rating, Kochia (kochia (Kochia scoparia); [22]): 100 | Plant response rating, Lambsquarters [7, 15]: 80 | Plant response rating, Lambsquarters [7, 16]: 98 | Plant response rating, Lambsquarters [7, 17]: 98 | Plant response rating, Lambsquarters [7, 18]: 98 | Plant response rating, Lambsquarters [7, 19]: 80 | Plant response rating, Lambsquarters [7, 20]: 90 | Plant response rating, Lambsquarters [7, 21]: 95 | Plant response rating, Lambsquarters [7, 22]: 98 | Plant response rating, Morningglory [8, 15]: 60 | Plant response rating, Morningglory [8, 17]: 60 | Plant response rating, Morningglory [8, 18]: 80 | Plant response rating, Morningglory [8, 20]: 35 | Plant response rating, Pigweed [9, 15]: 98 | Plant response rating, Pigweed [9, 16]: 98 | Plant response rating, Pigweed [9, 17]: 98 | Plant response rating, Pigweed [9, 18]: 98 | Plant response rating, Pigweed [9, 19]: 98 | Plant response rating, Pigweed [9, 20]: 98 | Plant response rating, Pigweed [9, 21]: 100 | Plant response rating, Pigweed [9, 22]: 100 | Plant response rating, Chickweed ([10]; 31 g ai/ha, scale 0 to 100 (0 no effect, 100 complete control)): 85 | Plant response rating, Chickweed ([10]; 62 g ai/ha, scale 0 to 100 (0 no effect, 100 complete control)): 98 | Plant response rating, Chickweed ([10]; 125 g ai/ha, scale 0 to 100, 0 no effect, 100 complete control): 98 | Plant response rating, Chickweed ([10]; 250 g ai/ha, scale 0 to 100): 98
